Laboratory results taken from patent US8084457B2, “Pharmaceutically active 4,6-disubstituted aminopyrimidine derivatives as modulators of protein kinases” (Lead Discovery Center GmbH, priority 2003, dated 2011).

How the values were obtained:
[1] = target: Abl (Homo sapiens, UniProt P00519); experiment: General kinase assay, selectivity panel: Abl; format: biochemical; settings: 10 μM of compound, in comparison to DMSO (0% inhibition)
Description: (§1) The inhibitory effect of compounds according to the present invention on the activity of protein kinases, depicted in Table 1, can be measured according to the following protocol:
(§2) Pipettinq Sequence: • 1) Add 10 μl 4 fold concentrated Substrate+4 fold concentrated ATP in 3 fold concentrated Reaction Buffer to each well of Assay Plate • 2) Add 10 μl 4 fold concentrated inhibitor in 4% DMSO in H2O to each well except to C− and C+ wells • 3) Add 10 μl 4% DMSO in H2O to C− and C+ wells • 4) Add 10 μl 500 mM EDTA in H2O to − wells • 5) Add 10 μl 50 μCi/ml Adenosine 5′-[γ-^33P]triphosphate in H2O to each well • 6) Add 10 μl 4 fold concentrated kinase in Reaction Buffer to each well • 7) Incubate 1 hr at room temperature • 8) Add 10 μl 50 mM EDTA in H2O to each well except to C− wells • 9) Prepare MAPH plates by adding 200 μl 0.75% H3PO4 to each well • 10) Exhaust 0.75% H3PO4 using Millipore vacuum station • 11) Add 60 μl 0.75% H3PO4 to each well of MAPH Filter Plate • 12) Transfer 30 μl sample per well from Assay Plate to corresponding well of MAPH Filter Plate • 13) Incubate 30 min at room temperature • 14) Wash each well of MAPH Filter Plates 3× with 200 μl 0.75% H3PO4 using Millipore vacuum station. • 15) Add 20 μl Scintillation Liquid to each well of MAPH Filter Plate • 16) Seal MAPH Filter Plate • 17) Store MAPH Filter Plate 30 min in darkness • 18) Quantify radioactivity
(§3) The activity of these protein kinases is depicted as % inhibition in the presence of 10 μM of compound in comparison to DMSO (0% inhibition).

[2] = target: CDK1 (Homo sapiens, UniProt P06493); experiment: General kinase assay, selectivity panel: CDK1; format: biochemical; settings: 10 μM of compound, in comparison to DMSO (0% inhibition)
Description: as §1, §2, §3

[3] = target: EGFR (Homo sapiens, UniProt P00533); experiment: General kinase assay, selectivity panel: EGFR; format: biochemical; settings: 10 μM of compound, in comparison to DMSO (0% inhibition)
Description: as §1, §2, §3

[4] = test system: PDGFR; experiment: General kinase assay, selectivity panel: PDGFR; format: biochemical; settings: 10 μM of compound, in comparison to DMSO (0% inhibition)
Description: as §1, §2, §3

[5] = target: c-Kit (Homo sapiens, UniProt P10721); experiment: General kinase assay, selectivity panel: c-Kit; format: biochemical; settings: 10 μM of compound, in comparison to DMSO (0% inhibition)
Description: as §1, §2, §3

[6] = target: p56 Lck (Homo sapiens, UniProt P06239); experiment: General kinase assay, selectivity panel: p56 Lck; format: biochemical; settings: 10 μM of compound, in comparison to DMSO (0% inhibition)
Description: as §1, §2, §3

[7] = target: RSK1 (Homo sapiens, UniProt Q15418); experiment: General kinase assay, selectivity panel: RSK1; format: biochemical; settings: 10 μM of compound, in comparison to DMSO (0% inhibition)
Description: as §1, §2, §3

[8] = target: cMet (Homo sapiens, UniProt P08581); experiment: General kinase assay, selectivity panel: cMet; format: biochemical; settings: 10 μM of compound, in comparison to DMSO (0% inhibition)
Description: as §1, §2, §3

[9] = target: GSK-3β (Homo sapiens, UniProt P49841); experiment: General kinase assay, selectivity panel: GSK-3β; format: biochemical; settings: 10 μM of compound, in comparison to DMSO (0% inhibition)
Description: as §1, §2, §3

[10] = target: c-Src (Homo sapiens, UniProt P12931); experiment: General kinase assay, selectivity panel: c-Src; format: biochemical; settings: 10 μM of compound, in comparison to DMSO (0% inhibition)
Description: as §1, §2, §3

[11] = test system: CDK9-dependent phosphorylation of RNA-polymerase II; experiment: Determination of RNA polymerase II C-terminal domain phosphorylation (western blot, PM1 cells); format: cell-based
Description: Determination of RNA Polymerase II C-terminal Domain Phosphorylation: The phosphorylation status of RNA polymerase II C-terminal domain was determined by western blot techniques. PM1 cells were seeded in 6-well plates at a density of 5×10^5 per well. After over night incubation cells were treated with compound as indicated in the respective experiments. Cells were pelleted and lysed with 300 μL 3× Laemmli buffer followed by 30 min denaturing at 65° C. After separation of equal lysate volumes by SDS-PAGE the proteins were transferred to nitrocellulose membranes (Schleicher&Schuell) and probed with anti-[…] (H5), anti-[…] (H14) or RNA Poll II-antibodies purchased from Eurogentec and Santa Cruz, respectively. The amount of reactive protein was visualized by ECL detection methods (Amersham). In order to see, if the compounds according to the general formula (I) do have the intrinsic capacity to penetrate cells and act against cellular target proteins, especially CDK9, the effect of Compound 30 on CDK9-dependent phosphorylation of RNA-polymerase II was investigated.

[12] = test system: NFκB-dependent transcriptional activity; experiment: NFκB-dependent transcriptional activity (NIH 3T3 75E 11/300D8 cell line); format: cell-based; settings: for EC50: titration
Excerpt: NFκB-dependent Transcriptional Activity:
The used NIH 3T3 75E 11/300D8 cell line is described elsewhere (J. Eickhoff et al., Journal of Biological Chemistry, 2004, 279(10), 9642-9652).
It is known, that CDK9 regulates the NFκB-dependent transitional activity. With Compound 4, Compound 7 and Compound 30 studies were done, to evaluate their effect on NFκB-dependent transcriptional activity.

[13] = test system: HBV; experiment: HBV replication assay in HepG2-2.2.15 cells; format: cell-based
Description: To test anti—HBV-activity of compounds the HBV-producing cell line HepG2-2.2.15 (M. A. Sells, PNAS 1987, 84, 1005-1009) was used. 1.0×10^4 cells were seeded in 96-well microtiter plates in DMEM medium supplemented with 10% FCS. After incubation at 37° C. in 5% CO2 atmosphere for 24 hours the medium was replaced with fresh medium containing the appropriately diluted compound. 3 days later medium was replaced by freshly prepared inhibitor-containing medium and the cells were incubated for further 3 days. Subsequently 200 μl lysis buffer (50 mM Tris-Cl 7.5; 1 mM EDTA 8.0; 0.5% NP40) per well was added. To remove cell debris and […], lysate was centrifuged (15000 rpm, 10 min, 4° C.). Cellular and viral RNA was removed by addition of 2 μl of RNase. 100 μl of the samples were spotted onto an uncharged nylon membrane pre-wetted with PBS (phosphate-buffered saline) using a 96 well-blotting chamber (MINIfold Dot-Blot, Schleicher&Schüll). After further washing with 200 μl PBS per well the membrane was treated twice with 0.5 M NaOH, 1.5 M NaCl (2 min) and 4 times with 0.5 M Tris 7.5, 3 M NaCl (1 min). The nucleic acids were fixed by UV-treatment and used for hybridisabon with a radioactive HBV-fragment prepared from the overgenome-length HBV-plasmid pT-HBV1.3 (L. G. Guidotti et al., Journal of Virology 1995., 69(10), 6158-6169).
The fixed membrane was pre-hybridized in a standard hybridisation buffer (50% formamide, 5×SSPE, 10×Denhards, 1% SDS, 100 μg/ml salmon sperm DNA) for at least 3 hours at 42° C. and hybridised overnight against the labelled HBV-fragment. The preparation of the HBV-fragment with the “Random primers DNA labelling system” (Invitrogen) was done according to the manufacturer's instructions. Hybridized filter were washed at room temperature with 2×SSC, at 62° C. with 2×SSC, 0.5% SDS and at 62° C. with 0.5×SSC, 0.5% SDS. Each washing step was carried out twice. The intensity of the HBV-DNA was quantified using a phosphoimager (Fuji). […] Absorbance was monitored at 570 nm and 600 nm wavelength.

[14] = test system: HCMV strain AD169; experiment: HCMV replication assay in HFF cells (EGFP); format: cell-based; settings: strain AD 169 in HFF cells
Description: Human foreskin fibroblasts (HFF) cell culture were grown in DMEM containing 10% FCS. For HCMV-replication assays, HFF cells were infected with HCMV strain AD169 producing EGFP (HCMV AD169-GFP; 27). 1 h post infection, medium was changed with medium containing the indicated compound concentration (0.3 μM, 1 μM and 3 μM, respectively) After incubation of 7 days cells were lysed (in 25 mM Tris, pH 7.5, 2 mM DTT, 1% Triton X-100 and 10% glycerol) and analysed for EGFP content in a Wallac Victor fluorescence detector.

Sequence of c-Src (P12931 whole entry, species assumed): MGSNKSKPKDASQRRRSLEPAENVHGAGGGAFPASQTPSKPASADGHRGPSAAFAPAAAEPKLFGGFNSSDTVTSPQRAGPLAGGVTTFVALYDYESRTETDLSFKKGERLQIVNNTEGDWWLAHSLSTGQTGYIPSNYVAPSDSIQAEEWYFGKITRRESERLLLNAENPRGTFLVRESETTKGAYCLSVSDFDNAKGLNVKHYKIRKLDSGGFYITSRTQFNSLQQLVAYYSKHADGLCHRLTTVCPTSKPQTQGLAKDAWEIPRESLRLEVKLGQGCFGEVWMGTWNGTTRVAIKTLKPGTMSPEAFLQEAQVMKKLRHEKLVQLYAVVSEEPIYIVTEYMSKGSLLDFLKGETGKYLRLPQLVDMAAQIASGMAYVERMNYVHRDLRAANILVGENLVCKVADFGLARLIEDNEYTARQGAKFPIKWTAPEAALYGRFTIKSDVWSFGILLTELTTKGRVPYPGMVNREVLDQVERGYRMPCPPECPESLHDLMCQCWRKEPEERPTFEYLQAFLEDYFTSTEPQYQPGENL
Sequence of Abl (P00519 whole entry, species assumed): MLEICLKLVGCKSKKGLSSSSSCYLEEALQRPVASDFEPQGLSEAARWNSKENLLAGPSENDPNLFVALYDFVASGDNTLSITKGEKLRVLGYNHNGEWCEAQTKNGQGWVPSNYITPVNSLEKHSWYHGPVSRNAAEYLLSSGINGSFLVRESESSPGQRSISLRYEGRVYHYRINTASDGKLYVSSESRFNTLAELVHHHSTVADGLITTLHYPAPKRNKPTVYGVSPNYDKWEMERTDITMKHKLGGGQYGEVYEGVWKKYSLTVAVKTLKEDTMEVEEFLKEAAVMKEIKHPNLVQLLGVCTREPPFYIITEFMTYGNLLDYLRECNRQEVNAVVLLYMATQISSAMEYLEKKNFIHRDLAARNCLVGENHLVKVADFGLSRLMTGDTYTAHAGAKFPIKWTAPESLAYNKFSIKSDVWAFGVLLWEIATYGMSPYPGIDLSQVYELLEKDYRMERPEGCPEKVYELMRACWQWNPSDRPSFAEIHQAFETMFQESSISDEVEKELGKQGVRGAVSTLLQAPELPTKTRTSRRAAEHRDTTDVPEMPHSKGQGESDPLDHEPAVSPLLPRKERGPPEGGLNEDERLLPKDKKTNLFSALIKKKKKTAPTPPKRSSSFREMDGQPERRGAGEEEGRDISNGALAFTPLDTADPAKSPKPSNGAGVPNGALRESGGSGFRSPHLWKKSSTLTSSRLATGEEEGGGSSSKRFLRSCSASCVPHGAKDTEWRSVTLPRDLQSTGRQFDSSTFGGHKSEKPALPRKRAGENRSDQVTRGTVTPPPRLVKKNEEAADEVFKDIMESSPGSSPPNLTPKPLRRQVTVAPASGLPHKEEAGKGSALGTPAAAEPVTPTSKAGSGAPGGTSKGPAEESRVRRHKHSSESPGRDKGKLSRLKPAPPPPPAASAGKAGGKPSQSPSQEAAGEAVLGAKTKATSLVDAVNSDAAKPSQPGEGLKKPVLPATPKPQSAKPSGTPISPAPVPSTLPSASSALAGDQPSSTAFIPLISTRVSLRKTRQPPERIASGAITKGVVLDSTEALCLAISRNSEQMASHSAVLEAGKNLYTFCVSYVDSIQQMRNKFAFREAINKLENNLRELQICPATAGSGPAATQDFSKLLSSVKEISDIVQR
Sequence of GSK-3β (P49841 whole entry, species assumed): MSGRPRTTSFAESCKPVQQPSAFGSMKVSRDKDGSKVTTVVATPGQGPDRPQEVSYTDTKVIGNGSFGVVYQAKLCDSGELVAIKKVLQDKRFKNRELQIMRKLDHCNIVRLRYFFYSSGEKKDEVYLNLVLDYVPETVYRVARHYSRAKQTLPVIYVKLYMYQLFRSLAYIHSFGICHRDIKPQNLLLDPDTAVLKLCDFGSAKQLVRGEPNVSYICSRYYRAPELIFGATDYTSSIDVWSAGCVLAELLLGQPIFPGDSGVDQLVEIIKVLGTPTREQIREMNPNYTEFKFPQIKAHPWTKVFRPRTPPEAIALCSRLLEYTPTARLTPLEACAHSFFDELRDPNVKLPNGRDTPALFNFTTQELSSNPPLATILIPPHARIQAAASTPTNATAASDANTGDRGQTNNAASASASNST
Sequence of EGFR (P00533 25-1210, species assumed): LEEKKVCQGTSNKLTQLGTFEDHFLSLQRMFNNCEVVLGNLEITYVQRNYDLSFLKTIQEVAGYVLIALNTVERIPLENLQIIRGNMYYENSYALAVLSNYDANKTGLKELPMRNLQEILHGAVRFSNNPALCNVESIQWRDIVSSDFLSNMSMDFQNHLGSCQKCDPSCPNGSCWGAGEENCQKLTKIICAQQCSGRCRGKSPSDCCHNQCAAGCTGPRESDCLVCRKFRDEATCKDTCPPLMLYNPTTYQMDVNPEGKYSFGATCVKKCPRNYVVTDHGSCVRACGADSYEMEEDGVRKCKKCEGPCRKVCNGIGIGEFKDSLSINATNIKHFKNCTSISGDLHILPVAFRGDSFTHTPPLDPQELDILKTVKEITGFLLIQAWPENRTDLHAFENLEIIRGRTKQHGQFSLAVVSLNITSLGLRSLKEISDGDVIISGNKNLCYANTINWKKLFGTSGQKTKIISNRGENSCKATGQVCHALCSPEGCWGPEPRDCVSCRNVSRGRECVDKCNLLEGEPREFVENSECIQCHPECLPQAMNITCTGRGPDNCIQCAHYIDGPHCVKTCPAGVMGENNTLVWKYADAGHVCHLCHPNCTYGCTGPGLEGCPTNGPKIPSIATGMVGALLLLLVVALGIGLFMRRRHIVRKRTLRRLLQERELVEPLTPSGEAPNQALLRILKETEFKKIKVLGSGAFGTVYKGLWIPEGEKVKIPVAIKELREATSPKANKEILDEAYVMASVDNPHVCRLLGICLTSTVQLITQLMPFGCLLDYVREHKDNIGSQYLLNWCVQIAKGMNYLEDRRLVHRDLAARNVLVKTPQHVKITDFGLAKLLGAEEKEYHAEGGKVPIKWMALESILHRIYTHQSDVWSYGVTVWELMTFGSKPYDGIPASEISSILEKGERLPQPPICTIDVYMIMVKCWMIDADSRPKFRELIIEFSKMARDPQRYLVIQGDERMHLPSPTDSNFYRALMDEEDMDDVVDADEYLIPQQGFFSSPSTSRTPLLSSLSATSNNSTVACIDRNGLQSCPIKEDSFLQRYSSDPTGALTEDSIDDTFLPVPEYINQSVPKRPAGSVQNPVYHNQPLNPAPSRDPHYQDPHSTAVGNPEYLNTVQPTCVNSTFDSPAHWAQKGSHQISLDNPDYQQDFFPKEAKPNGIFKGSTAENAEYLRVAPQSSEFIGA
Sequence of c-Kit (P10721 26-976): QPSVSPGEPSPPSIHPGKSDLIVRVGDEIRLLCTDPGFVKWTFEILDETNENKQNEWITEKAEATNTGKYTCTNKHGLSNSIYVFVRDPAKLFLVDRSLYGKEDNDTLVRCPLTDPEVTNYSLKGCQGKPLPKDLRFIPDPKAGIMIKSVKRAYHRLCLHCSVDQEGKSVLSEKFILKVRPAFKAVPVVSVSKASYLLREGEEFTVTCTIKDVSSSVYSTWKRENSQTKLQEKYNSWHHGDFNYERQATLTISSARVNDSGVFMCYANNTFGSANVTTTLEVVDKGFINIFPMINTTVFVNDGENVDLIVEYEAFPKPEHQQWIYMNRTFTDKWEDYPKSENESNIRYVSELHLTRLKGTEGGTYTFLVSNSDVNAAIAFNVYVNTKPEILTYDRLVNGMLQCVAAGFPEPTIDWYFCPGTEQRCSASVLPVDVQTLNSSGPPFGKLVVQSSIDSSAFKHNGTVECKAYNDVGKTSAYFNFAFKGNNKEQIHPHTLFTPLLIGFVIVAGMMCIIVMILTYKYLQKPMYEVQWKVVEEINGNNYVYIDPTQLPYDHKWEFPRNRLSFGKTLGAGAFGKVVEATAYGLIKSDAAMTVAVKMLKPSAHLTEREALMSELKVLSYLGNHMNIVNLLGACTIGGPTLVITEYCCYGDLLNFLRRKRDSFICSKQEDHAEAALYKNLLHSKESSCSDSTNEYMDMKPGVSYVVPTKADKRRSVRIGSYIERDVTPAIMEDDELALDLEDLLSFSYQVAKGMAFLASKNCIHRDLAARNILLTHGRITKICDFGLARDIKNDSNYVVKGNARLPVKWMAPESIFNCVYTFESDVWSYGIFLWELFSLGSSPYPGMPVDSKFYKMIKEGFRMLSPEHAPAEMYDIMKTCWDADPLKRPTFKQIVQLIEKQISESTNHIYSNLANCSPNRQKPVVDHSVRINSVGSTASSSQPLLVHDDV
Sequence of CDK1 (P06493 whole entry, species assumed): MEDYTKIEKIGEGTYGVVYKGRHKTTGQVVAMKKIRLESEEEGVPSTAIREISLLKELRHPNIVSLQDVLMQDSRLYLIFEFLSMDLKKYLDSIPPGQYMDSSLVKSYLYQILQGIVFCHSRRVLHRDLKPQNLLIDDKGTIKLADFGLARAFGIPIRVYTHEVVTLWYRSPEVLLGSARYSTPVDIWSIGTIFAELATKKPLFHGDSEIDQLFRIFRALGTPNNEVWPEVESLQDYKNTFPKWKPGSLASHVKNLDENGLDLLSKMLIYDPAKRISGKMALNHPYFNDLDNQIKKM
Sequence of CDK1 (P14635 whole entry partner, species assumed): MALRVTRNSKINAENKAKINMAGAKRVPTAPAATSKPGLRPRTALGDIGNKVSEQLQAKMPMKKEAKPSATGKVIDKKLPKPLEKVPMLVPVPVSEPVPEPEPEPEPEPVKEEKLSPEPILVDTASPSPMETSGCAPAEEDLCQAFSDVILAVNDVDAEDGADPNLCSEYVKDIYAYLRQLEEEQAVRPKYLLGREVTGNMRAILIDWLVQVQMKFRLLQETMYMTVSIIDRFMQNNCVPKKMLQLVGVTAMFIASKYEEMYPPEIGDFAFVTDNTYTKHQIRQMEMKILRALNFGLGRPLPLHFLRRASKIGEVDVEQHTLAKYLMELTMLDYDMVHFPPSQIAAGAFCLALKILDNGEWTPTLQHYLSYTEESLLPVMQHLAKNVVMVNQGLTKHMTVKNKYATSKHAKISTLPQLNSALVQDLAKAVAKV

SMILES	Abl (% inhibition) [1]	CDK1 (% inhibition) [2]	EGFR (% inhibition) [3]	PDGFR (% inhibition) [4]	c-Kit (% inhibition) [5]	p56 Lck (% inhibition) [6]	RSK1 (% inhibition) [7]	cMet (% inhibition) [8]	GSK-3β (% inhibition) [9]	c-Src (% inhibition) [10]	molecular weight of RNA polymerase II [11]	serine 2 phosphorylation of RNA polymerase II ([11]; anti-SER2 (H5))	serine 5 phosphorylation of RNA polymerase II ([11]; anti-SER5 (H14))	TNF-α stimulated NFκB-dependent promoter activity ([12]; 1 μM final concentration, TNF-α stimulated)	NFκB-dependent promoter activity under non-stimulated conditions ([12]; non-stimulated conditions)	EC50 [12] [nM]	HBV replication (in words) [13]	HCMV replication (in words) [14]	inhibition of NFκB (in words, compared with Compound 30) [12]
COc1ccccc1-c1cc(Nc2ccc(NC(=O)C3CCCN(C)C3)cc2)ncn1 (centres unmarked) [Compound 87]	b (inhibition between 80 and 50%: b)	a (inhibition greater than 80%: a)	a (inhibition greater than 80%: a)	b (inhibition between 80 and 50%: b)	b (inhibition between 80 and 50%: b)	b (inhibition between 80 and 50%: b)	b (inhibition between 80 and 50%: b)	c (inhibition between 50 and 30%: c)											
COc1ccccc1-c1cc(Nc2ccc(NC(=O)[C@@H]3CCCCN3)cc2)ncn1 [Compound 30]	b (inhibition between 80 and 50%: b)	a (inhibition greater than 80%: a)	a (inhibition greater than 80%: a)	c (inhibition between 50 and 30%: c)	b (inhibition between 80 and 50%: b)	b (inhibition between 80 and 50%: b)		c (inhibition between 50 and 30%: c)	c (inhibition between 50 and 30%: c)	b (inhibition between 80 and 50%: b)	reduction	decreased	did not show any differences	able, to affect	no inhibition was observed	~1000	inactive	showed inhibition	
COc1ccc(-c2cc(Nc3ccc(NC(=O)c4ccc(N)cc4)cc3)ncn2)cc1 [Compound 6]		a (inhibition greater than 80%: a)		c (inhibition between 50 and 30%: c)	b (inhibition between 80 and 50%: b)	c (inhibition between 50 and 30%: c)			b (inhibition between 80 and 50%: b)									showed inhibition	
Nc1ccc(C(=O)Nc2ccc(Nc3cc(-c4ccccc4OCc4ccccc4)ncn3)cc2)cc1 [Compound 4]		a (inhibition greater than 80%: a)	c (inhibition between 50 and 30%: c)			a (inhibition greater than 80%: a)			a (inhibition greater than 80%: a)							~2000		showed inhibition	less effectively
NC(=O)c1ccc(Nc2cc(-c3ccccc3OCc3ccccc3)ncn2)cc1 [Compound 95]		a (inhibition greater than 80%: a)	b (inhibition between 80 and 50%: b)	c (inhibition between 50 and 30%: c)		b (inhibition between 80 and 50%: b)			a (inhibition greater than 80%: a)	b (inhibition between 80 and 50%: b)									
COc1ccccc1-c1cc(Nc2ccc(C(=O)N[C@@H]3CCCC[C@H]3N)cc2)ncn1 (racemic) [Compound 83]	c (inhibition between 50 and 30%: c)	a (inhibition greater than 80%: a)	b (inhibition between 80 and 50%: b)	b (inhibition between 80 and 50%: b)	b (inhibition between 80 and 50%: b)	b (inhibition between 80 and 50%: b)		b (inhibition between 80 and 50%: b)	c (inhibition between 50 and 30%: c)	b (inhibition between 80 and 50%: b)									
